Laboratory results published in patent publication US20210161900A1, “COMPOSITIONS AND METHODS FOR THE TREATMENT OF SENESCENT TUMOR CELLS” (Duke University, priority 2018, published 2021).

Legend:
HCC827 and H1650 cells = experiment: Cleaved caspase-3 immunoblot in proliferating or palbociclib-treated senescent NSCLC cells treated with PAR1 inhibitors; type: cell-based, human; conditions: for caspase-3 cleavage: HCC827 and H1650, palbociclib (0.5 μM, 7 days)-treated senescent cells, increasing doses of PAR1 inhibitor
Method: Because THBD is thought to signal primarily through PAR1, it was first tested whether, like THBD depletion, pharmacological PAR1 inhibition results in senescent cell death. For this, proliferating or palbociclib-treated senescent HCC827 and H1650 cells were treated with increasing doses of vorapaxar or SCH79797 and immunoblotted for cleaved caspase-3.

[1] = test system: THBD in primary human bronchial epithelial (HBE) cells; experiment: Gene expression profiling of erlotinib-induced senescent versus proliferating HBE cells; type: cell-based
Excerpt: Cell Res, 2018. 28(6): p. 625-643; Xiang, H., et al., UHRF1 is required for basal stem cell proliferation in response to airway injury. Cell Discov, 2017. 3: p. […] Cell Res, 2018. 28(6): p. 625-643).

NSCLC = conditions: monotherapy for NSCLC; cited from earlier work
MDA-MB-231 cells = experiment: Cleaved caspase-3 immunoblot in proliferating and palbociclib-induced senescent MDA-MB-231 cells treated with vorapaxar; type: cell-based
Method: Proliferating and palbociclib-induced senescent MDA-MB-231 cells were treated with increasing doses of vorapaxar. Following treatment, cells were immunoblotted for cleaved caspase-3.

## CC(C)c1ccc(Cn2ccc3c4c(N)nc(NC5CC5)nc4ccc32)cc1 [SCH79797]
HCC827 and H1650 cells
  caspase-3 cleavage: dose-dependent increase

## C#Cc1cccc(Nc2ncnc3cc(OCCOC)c(OCCOC)cc23)c1 [erlotinib]
[1]
  THBD gene expression in senescent versus proliferating cells: four-fold increase

## CC(=O)c1c(C)c2cnc(Nc3ccc(N4CCNCC4)cn3)nc2n(C2CCCC2)c1=O [palbociclib]
NSCLC
  adverse side effects: neutropenia and leukopenia

## CCOC(=O)N[C@@H]1CC[C@@H]2[C@@H](C1)C[C@H]1C(=O)O[C@H](C)[C@H]1[C@H]2/C=C/c1ccc(-c2cccc(F)c2)cn1 [vorapaxar]
HCC827 and H1650 cells
  caspase-3 cleavage: dose-dependent increase
HCC827 and H1650 cells; combined with palbociclib
  lowest dose inducing caspase-3 cleavage: 25 nM
MDA-MB-231 cells; palbociclib-induced senescent MDA-MB-231, increasing doses of vorapaxar (50 nM-1 μM), 24 h
  caspase-3 cleavage, senescent cells: dose-dependent increase
MDA-MB-231 cells; proliferating MDA-MB-231, increasing doses of vorapaxar
  caspase-3 cleavage, proliferating cells: minimal increase
